Assay results from patent US20060264460A1 (Wyeth, priority 2005, published 2006).
One block for each compound: values may come before it.

Target: T1, human Cot/Tpl2 kinase (Homo sapiens, UniProt P41279)
T1 construct: human Cot/Tpl2 kinase construct encoding residues 30-398; 6His (N); made in house; host or cells: Sf9 insect cells, baculovirus system (BD Biosciences)
Assay: Tpl2/Cot kinase assay: GST-MEK1 phosphorylation detected by ELISA (DELFIA Eu)
Type: biochemical
In short: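 His-tagged human Tpl2 from Sf9 cells, Ni-affinity and size-exclusion purified (monomer). 0.4 nM Tpl2 with 35 nM GST-MEK1, 50 uM ATP, MOPS pH 7.2, 1% DMSO, 1 h at 30° C; EDTA stop. MEK1 Ser217/221 phosphorylation detected by anti-phospho-MEK1 and Eu-labelled secondary ELISA; IC50 fitted.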

[1] = 0.4 nM Tpl2, 35 nM GST-MEK1, 50 uM ATP, 1 h at 30° C.
[2] = Table 2, Tpl2/Cot kinase, GST-MEK1 substrate, 50 uM ATP
[3] = Tpl2/Cot kinase, GST-MEK1 substrate, 50 uM ATP
[4] = Tpl2/Cot kinase, GST-MEK1 substrate, 50 uM ATP, 1 h at 30° C., Table 2

T1 sequence (P41279 30-398): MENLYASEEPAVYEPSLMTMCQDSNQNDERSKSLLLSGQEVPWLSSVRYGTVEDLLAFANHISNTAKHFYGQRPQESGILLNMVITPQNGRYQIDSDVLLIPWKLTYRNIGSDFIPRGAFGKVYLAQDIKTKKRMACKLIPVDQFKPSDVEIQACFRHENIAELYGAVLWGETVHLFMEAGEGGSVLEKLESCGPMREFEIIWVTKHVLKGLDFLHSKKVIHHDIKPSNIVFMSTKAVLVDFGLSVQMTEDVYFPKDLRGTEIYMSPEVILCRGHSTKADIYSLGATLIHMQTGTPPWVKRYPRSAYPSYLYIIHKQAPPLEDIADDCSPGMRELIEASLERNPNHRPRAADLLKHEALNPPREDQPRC

Compound: N#Cc1cnc2cc(OCCCN3CCOCC3)c(NCc3cnc[nH]3)cc2c1Nc1ccc(F)c(Cl)c1 [Example 159, 6-((1H-imidazol-5-yl)methylamino)-4-(3-chloro-4-fluorophenylamino)-7-(3-morpholinopropoxy)quinoline-3-carbonitrile]
- IC50 [1]: 9200 nM

Compound: N#Cc1cnc2c(Br)cc(NCc3cnn(-c4ccccc4)n3)cc2c1Nc1ccc(F)c(Cl)c1 [Example 434]
- IC50 [2]: > 40000 nM

Compound: CN(C)C(=O)N1CCC(CCn2cc(CNc3cc(Cl)c4ncc(C#N)c(Nc5ccc(F)c(Cl)c5)c4c3)nn2)CC1 [Example 830]
- IC50 [3]: 19 nM

Compound: CN1CCCC1CCn1cc(CNc2cc(Cl)c3ncc(C#N)c(NC4CCC5(CCCCC5)CC4)c3c2)nn1 (stereo not drawn) [Example 971]
- IC50 [4]: > 3000 nM

Compound: CNCCn1cc(CNc2cc(Br)c3ncc(C#N)c(Nc4ccc(F)c(Cl)c4)c3c2)nn1 [Example 512]
- IC50 [2]: 38 nM

Compound: N#Cc1cnc2c(Cl)cc(NCc3cn(CCc4cccnc4)nn3)cc2c1Nc1ccc(F)c(Cl)c1 [Example 1020]
- IC50 [4]: 130 nM

Compound: COc1c(C)cnc(CNc2cc(Cl)c3ncc(C#N)c(Nc4ccc(F)c(Cl)c4)c3c2)c1C [Example 276, 8-chloro-4-[(3-chloro-4-fluorophenyl)amino]-6-{[(4-methoxy-3,5-dimethylpyridin-2-yl)methyl]amino}quinoline-3-carbonitrile]
- IC50 [1]: 4700 nM

Compound: N#Cc1cnc2c(C(F)(F)F)cc(NCc3cnc(S(=O)(=O)c4ccccc4)s3)cc2c1Nc1ccc(F)c(Cl)c1 [Example 242, 4-[(3-chloro-4-fluorophenyl)amino]-6-({[2-(phenylsulfonyl)-1,3-thiazol-5-yl]methyl}amino)-8-(trifluoromethyl)quinoline-3-carbonitrile]
- IC50 [1]: > 40000 nM

Compound: Cn1ccnc1CNc1ccc2ncc(C#N)c(NC3CCCCCC3)c2c1 [Example 249, 4-(cycloheptylamino)-6-{[(1-methyl-1H-imidazol-2-yl)methyl]amino}quinoline-3-carbonitrile]
- IC50 [1]: 380 nM

Compound: N#Cc1cnc2c(Cl)cc(NC[C@H]3C[C@H](OCc4cccnc4)CO3)cc2c1Nc1ccc(F)c(Cl)c1 [Example 939]
- IC50 [4]: > 3000 nM

Compound: CC(C)c1nc[nH]c1CNc1cc(Br)c2ncc(C#N)c(Nc3ccc(F)c(Cl)c3)c2c1 [Example 115, 8-bromo-4-(3-chloro-4-fluorophenylamino)-6-((4-isopropyl-1H-imidazol-5-yl)methylamino)quinoline-3-carbonitrile]
- IC50 [1]: 130 nM

Compound: CN(C)c1ccc(CNc2ccc3ncc(C#N)c(Nc4ccc(F)c(Cl)c4)c3c2)c(Br)c1 [Example 56, 6-(2-Bromo-4-dimethylamino-benzylamino)-4-(3-chloro-4-fluoro-phenylamino)-quinoline-3-carbonitrile]
- IC50 [1]: 3400 nM

Compound: CCN(CC1CCN(C(=O)c2cccnc2)CC1)c1cc(Cl)c2ncc(C#N)c(Nc3ccc(F)c(Cl)c3)c2c1 [Example 848]
- IC50 [3]: 380 nM

Compound: N#Cc1cnc2ccc(NCc3cnc[nH]3)cc2c1NC1CCCCCC1 [Example 400]
- IC50 [2]: 490 nM

Compound: CC(CNc1cc(Cl)c2ncc(C#N)c(Nc3ccc(F)c(Cl)c3)c2c1)c1ccncc1 (stereo not drawn) [Example 639]
- IC50 [2]: 200 nM

Compound: CC(C)(C)OC(=O)N1CCC(CCn2cc(CNc3cc(Cl)c4ncc(C#N)c(Nc5ccc(F)c(Cl)c5)c4c3)nn2)CC1 [Example 504]
- IC50 [2]: 75 nM

Compound: N#Cc1cnc2c(Cl)cc(NCc3cn(C4CCC(=O)CC4)nn3)cc2c1Nc1ccc(F)c(Cl)c1 [Example 333, 8-chloro-4-[(3-chloro-4-fluorophenyl)amino]-6-({[1-(4-oxocyclohexyl)-1H-1,2,3-triazol-4-yl]methyl}amino)quinoline-3-carbonitrile]
- IC50 [1]: 1.1 nM

Compound: CS(=O)(=O)Cn1cc(CNc2cc(Br)c3ncc(C#N)c(Nc4ccc(F)c(Cl)c4)c3c2)nn1 [Example 704]
- IC50 [3]: 33 nM

Compound: N#Cc1cnc2c(Cl)cc(NCC(=O)NCc3ccccn3)cc2c1Nc1ccc(F)c(Cl)c1 [Example 607]
- IC50 [2]: 330 nM

Compound: N#Cc1cnc2c(Cl)cc(NCc3cn(CCN4CCCCCC4)nn3)cc2c1NC1CCCC2(CCCC2)C1 (stereo not drawn) [Example 976]
- IC50 [4]: > 3000 nM

Compound: N#Cc1cnc2c(Cl)cc(NCc3cn(CCN4CCCCCC4)nn3)cc2c1Nc1ccc(Oc2ccccc2)cc1 [Example 988]
- IC50 [4]: > 3000 nM

Compound: N#Cc1cnc2c(-c3ccoc3)cc(NCc3cccnc3)cc2c1Nc1ccc(F)c(Cl)c1 [Example 102, 4-(3-chloro-4-fluorophenylamino)-8-(furan-3-yl)-6-(pyridin-3-ylmethylamino)quinoline-3-carbonitrile]
- IC50 [1]: 1300 nM

Compound: N#Cc1cnc2c(Cl)cc(NCc3cn(C4CCOC4=O)nn3)cc2c1Nc1ccc(F)c(Cl)c1 (stereo not drawn) [Example 934]
- IC50 [4]: 18 nM

Compound: Cn1ccnc1CNc1cc(Br)c2ncc(C#N)c(Nc3ccc(F)c(Cl)c3)c2c1 [Example 220, 8-bromo-4-[(3-chloro-4-fluorophenyl)amino]-6-{[(1-methyl-1H-imidazol-2-yl)methyl]amino}quinoline-3-carbonitrile]
- IC50 [1]: 26 nM

Compound: CC(C)(C)CN1CCC(n2cc(CNc3cc(Br)c4ncc(C#N)c(Nc5ccc(F)c(Cl)c5)c4c3)nn2)CC1 [Example 715]
- IC50 [3]: 190 nM

Compound: CC(C)(C)OC(=O)N1CCN(CCCn2cc(CNc3cc(Cl)c4ncc(C#N)c(Nc5ccc(F)c(Cl)c5)c4c3)nn2)CC1 [Example 765]
- IC50 [3]: 230 nM

Compound: N#Cc1cnc2c(C(F)(F)F)cc(N)cc2c1Nc1ccc(F)c(Cl)c1 [Example 394]
- IC50 [2]: 5800 nM

Compound: CC(C)N1C2CCC1CC(n1cc(CNc3cc(Cl)c4ncc(C#N)c(Nc5ccc(F)c(Cl)c5)c4c3)nn1)C2 (stereo not drawn) [Example 1049]
- IC50 [4]: 420 nM

Compound: N#Cc1cnc2c(Cl)cc(N(Cc3cn(C4CCN(C5CCC5)CC4)nn3)C3CCC3)cc2c1Nc1ccc(F)c(Cl)c1 [Example 1029]
- IC50 [4]: 290 nM

The remaining lines, values ahead:

- IC50 [3]: 44 nM
Compound: CN1CCC(CCn2cc(CNc3cc(Br)c4ncc(C#N)c(Nc5ccc(F)c(Cl)c5)c4c3)nn2)CC1 [Example 695]

- IC50 [1]: 2500 nM
Compound: CS(=O)(=O)c1cccc(CNc2ccc3ncc(C#N)c(NC4CCCCCC4)c3c2)c1 [Example 248, 4-(cycloheptylamino)-6-{[3-(methylsulfonyl)benzyl]amino}quinoline-3-carbonitrile]

- IC50 [1]: > 40000 nM
Compound: N#Cc1cnc2c(-c3ccsc3)cc(NCc3cccnc3)cc2c1Nc1cccc(Cl)c1 [Example 100, 4-(3-chlorophenylamino)-6-(pyridin-3-ylmethylamino)-8-(thiophen-3-yl)quinoline-3-carbonitrile]

- IC50 [1]: 200 nM
Compound: Cn1ccnc1CNc1cc(C(F)(F)F)c2ncc(C#N)c(Nc3ccc(F)c(Cl)c3)c2c1 [Example 236, 4-[(3-chloro-4-fluorophenyl)amino]-6-{[(1-methyl-1H-imidazol-2-yl)methyl]amino}-8-(trifluoromethyl)quinoline-3-carbonitrile]

- IC50 [1]: 8.2 nM
Compound: CC(C)N1CCCC(n2cc(CNc3cc(Cl)c4ncc(C#N)c(Nc5ccc(F)c(Cl)c5)c4c3)nn2)CC1 (stereo not drawn) [Example 331, 8-chloro-4-[(3-chloro-4-fluorophenyl)amino]-6-({[1-(1-isopropylazepan-4-yl)-1H-1,2,3-triazol-4-yl]methyl}amino)quinoline-3-carbonitrile]

- IC50 [1]: 350 nM
Compound: N#Cc1cnc2c(Cl)cc(NCCn3ccnn3)cc2c1Nc1ccc(F)c(Cl)c1 [Example 211, 8-chloro-4-[(3-chloro-4-fluorophenyl)amino]-6-{[2-(1H-1,2,3-triazol-1-yl)ethyl]amino}quinoline-3-carbonitrile]

- IC50 [1]: 1100 nM
Compound: CN(C)C(=O)c1cc(NCc2ccc(C#N)cc2)cc2c(Nc3ccc(F)c(Cl)c3)c(C#N)cnc12 [Example 86, 4-(3-chloro-4-fluorophenylamino)-3-cyano-6-(4-cyanobenzylamino)-N,N-dimethylquinoline-8-carboxamide]

- IC50 [3]: > 3000 nM
Compound: N#Cc1cnc2c(Br)cc(NCc3cn(COCc4ccccc4)nn3)cc2c1Nc1ccc(F)c(Cl)c1 [Example 805]

- IC50 [4]: 1160 nM
Compound: CN(C)CC#Cc1csc(CNc2cc(Cl)c3ncc(C#N)c(Nc4ccc(F)c(Cl)c4)c3c2)c1 [Example 1023]

- IC50 [2]: 29 nM
Compound: CN1CCN(CCCn2cc(CNc3cc(Br)c4ncc(C#N)c(Nc5ccc(F)c(Cl)c5)c4c3)nn2)CC1 [Example 626]

- IC50 [2]: 15 nM
Compound: N#Cc1cnc2c(Br)cc(NCc3cn(-c4cc[n+]([O-])cc4)nn3)cc2c1Nc1ccc(F)c(Cl)c1 [Example 577]

- IC50 [2]: > 3000 nM
Compound: CC(C)n1cnc(CNc2cc(Br)c3ncc(C#N)c(Nc4ccc(F)c(Cl)c4)c3c2)c1 [Example 633]

- IC50 [1]: 910 nM
Compound: N#Cc1cnc2ccc(NCc3cnc(S(=O)(=O)c4ccccc4)s3)cc2c1Nc1ccc(F)c(Cl)c1 [Example 245, 4-[(3-chloro-4-fluorophenyl)amino]-6-({[2-(phenylsulfonyl)-1,3-thiazol-5-yl]methyl}amino)quinoline-3-carbonitrile]

- IC50 [2]: 1400 nM
Compound: CCOC(=O)CNc1cc(Cl)c2ncc(C#N)c(Nc3ccc(F)c(Cl)c3)c2c1 [Example 475]

- IC50 [4]: 1300 nM
Compound: CC(C)N1CC=C(c2cncc(CNc3cc(Cl)c4ncc(C#N)c(Nc5ccc(F)c(Cl)c5)c4c3)c2)CC1 [Example 1054]

- IC50 [1]: 61 nM
Compound: N#Cc1cnc2c(Br)cc(NCc3cn(CCN4CCCCCC4)nn3)cc2c1Nc1ccc(F)c(Cl)c1 [Example 307, 6-{[1-(2-Azepan-1-yl-ethyl)-1H-[1,2,3]triazol-4-ylmethyl]-amino}-8-bromo-4-(3-chloro-4-fluoro-phenylamino)-quinoline-3-carbonitrile]

- IC50 [2]: 3400 nM
Compound: COC(=O)c1cnc(CNc2cc(Cl)c3ncc(C#N)c(Nc4ccc(F)c(Cl)c4)c3c2)n1C [Example 442]

- IC50 [2]: > 3000 nM
Compound: N#Cc1cnc2c(Cl)cc(NCC(=O)NCCCN3CCOCC3)cc2c1Nc1ccc(F)c(Cl)c1 [Example 604]

- IC50 [2]: 1.1 nM
Compound: CS(=O)(=O)N1CCC(n2cc(CNc3cc(Br)c4ncc(C#N)c(Nc5ccc(F)c(Cl)c5)c4c3)nn2)CC1 [Example 525]
